Source: patent US5331006A, “Amino acid analogs as CCK antagonists” (Warner-Lambert Company, priority 1991, dated 1994)
Where two headings read alike, the source gives them in different places.

Molecular target: T1, CCK receptor sites (Mus musculus, UniProt P56481)
T1 construct: from tissue; host or cells: cerebral cortex membranes of male CFLP mice
T1 sequence (P56481 1-453): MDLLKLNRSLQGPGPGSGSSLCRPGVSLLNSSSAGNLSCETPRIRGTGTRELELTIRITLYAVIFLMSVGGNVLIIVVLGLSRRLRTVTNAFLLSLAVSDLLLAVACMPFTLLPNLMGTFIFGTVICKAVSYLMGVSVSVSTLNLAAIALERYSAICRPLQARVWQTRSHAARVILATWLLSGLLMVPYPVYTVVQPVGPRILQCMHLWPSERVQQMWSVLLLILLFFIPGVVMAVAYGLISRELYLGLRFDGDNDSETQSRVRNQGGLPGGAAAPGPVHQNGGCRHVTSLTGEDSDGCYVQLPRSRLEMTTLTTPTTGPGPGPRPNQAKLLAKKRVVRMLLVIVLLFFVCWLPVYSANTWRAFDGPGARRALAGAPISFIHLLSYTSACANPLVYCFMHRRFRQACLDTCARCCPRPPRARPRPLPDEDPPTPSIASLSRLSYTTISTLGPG
Assay: CCK receptor binding, displacement of tritiated pentagastrin from mouse cerebral cortex membranes
Set-up: key: IA = Inactive in respect to this binding assay
Settings: 2 nM tritiated pentagastrin, mouse cerebral cortical membranes, Ki from IC50 by Cheng-Prusoff
Description: The biological activity of compounds of the present invention was evaluated employing an initial screening test which rapidly and accurately measured the binding of the tested compound to known CCK receptor sites. […] (See Hays, et al, Neuropeptides 1:53-62, 1980; and Satuer, et al, Science 208:1155-1156, 1980.)
In this screening test the cerebral cortices taken from male CFLP mice weighing between 30 to 40 g were dissected on ice, weighed, and homogenized in 10 volumes of 50 mM Tris-HCl buffer (pH 7.4 at 0° to 4° C.). The resulting suspension was centrifuged, the supernate was discarded, and the pellet was washed by resuspension in Tris-HCl buffer followed by recentrifugation. The final pellet was resuspended in 20 volumes of […] Hepes buffer (pH 7.2 at 23° C.) containing 130 mM NaCl, […] KCl, […] MgCl2, […] EDTA, 5 mg/mL bovine albumin, and bacitracin (0.25 mg/mL).
In saturation studies, cerebral cortical membranes were incubated at 23° C. for 120 minutes in a final volume of 500 μL of Hepes incubation buffer (pH 7.2) together with 0.2-20 nM tritiated-pentagastrin (Amersham International, England).
In the displacement experiments, membranes were incubated with a single concentration (2 nM) of ligand, together with increasing concentrations of competitive test compound. In each case, the nonspecific binding was defined as that persisting in the presence of the unlabeled octapeptide CCK26-33 (10^-6 M).
Following incubation, radioactivity bound to membranes was separated from that free in solution by rapid filtration through Whatman GF/B filters and washed three times with 4 mL of ice cold Tris-HCl buffer. Filters from samples incubated with tritiated pentagastrin were placed in polyethylene vials with 4 mL of scintillation cocktail, and the radioactivity was estimated by liquid scintillation spectrometry (efficiency 47% to 52%).
The specific binding to CCK receptor sites was defined as the total bound tritiated pentagastrin minus the amount of tritiated pentagastrin bound in the presence of 10^-6 octapeptide, CCK26-33.
Saturation curves for specific tritiated pentagastrin binding to mouse cortical membranes were analyzed by the methods of Scatchard (Ann. New York Acad. Sci. 51:660-672, 1949; Hill, J. Physiol. 40:IV-VIII, 1910) to provide estimates for the maximum number of binding sites (βmax)and the equilibrium dissociation constant (Ka).
In displacement experiments, inhibition curves were analyzed by either logit-log plots or the iterative curve fitting computer program ALLFIT (DeLean, Munson, and Redbard, 1978) to provide estimates of the IC50 and nH (apparent Hill coefficient) values). IC50 values were defined as the concentration of test compound required to produce 50% inhibition of specific binding).
The inhibition constant (Ki) of the test compound was then calculated according to the Cheng-Prusoff equation: [formula] where [L] is the concentration of radiolabel and Ka is the equilibrium dissociation constant.
The Ki values for several representative compounds of the present invention are present in Table II.

SMILES | Ki (read-out: Ki) [nM] | Ki
CC(Cc1c(Br)oc2ccccc12)(NC(=O)OC1C2CC3CC(C2)CC1C3)C(=O)NC(CO)Cc1ccccc1 (stereo not drawn) [drawing 28 (H H CH2 OH H H)] | 14 | 
CC(Cc1c(Br)oc2ccccc12)(NC(=O)OC1C2CC3CC(C2)CC1C3)C(=O)NCCc1ccccc1 (stereo not drawn) [drawing 28 (H H H H H)] | 1280 | 
CC(Cc1cccnc1)(NC(=O)OC1C2CC3CC(C2)CC1C3)C(=O)N[C@H](CO)Cc1ccccc1 (stereo partly drawn) [drawing 32 (Diast I)] | 700 | 
CC(C)COC(=O)OC[C@H](Cc1ccccc1)NC(=O)C(C)(Cc1cccnc1)NC(=O)OC1C2CC3CC(C2)CC1C3 (stereo partly drawn) [drawing 32 (H H CH2 OCO2 i-Bu H H)] | 3000 | 
CC(Cc1ccc2ccccc2n1)(NC(=O)OC1C2CC3CC(C2)CC1C3)C(=O)N[C@H](CO)Cc1ccccc1 (stereo partly drawn) [drawing 36 (Diast I)] | 410 | 
CC(Cc1ccc2ccccc2n1)(NC(=O)OC1C2CC3CC(C2)CC1C3)C(=O)NCCc1ccccc1 (stereo not drawn) [drawing 36 (H H H H H)] | 400 | 
CC(Cc1n[nH]c2ccccc12)(NC(=O)OC1C2CC3CC(C2)CC1C3)C(=O)N[C@H](CO)Cc1ccccc1 (stereo partly drawn) [drawing 38 (H H CH2 OH H H)] | 69 | 
CC(Cc1n[nH]c2ccccc12)(NC(=O)OC1C2CC3CC(C2)CC1C3)C(=O)NCCc1ccccc1 (stereo not drawn) [drawing 38 (H H H H H)] | 100 | 
CC(Cc1ccnc2ccccc12)(NC(=O)OC1C2CC3CC(C2)CC1C3)C(=O)N[C@H](CO)Cc1ccccc1 (stereo partly drawn) [drawing 40 (H H CH2 OH H H)] | 129 | 
CC(Cc1ccnc2ccccc12)(NC(=O)OC1C2CC3CC(C2)CC1C3)C(=O)NCCc1ccccc1 (stereo not drawn) [drawing 40 (H H H H H)] | 262 | 
CC(Cc1ccc2ccccc2n1)(NC(=O)OC1C2CC3CC(C2)CC1C3)C(=O)NC(CO)Cc1ccccc1 (stereo not drawn) [drawing 43 (H H CH2 OH H H)] | 402 | 
CC(Cc1csc2ccccc12)(NC(=O)OC1C2CC3CC(C2)CC1C3)C(=O)N[C@H](CO)Cc1ccccc1 (stereo partly drawn) [drawing 47 (H H CH2 OH H H)] | 455 | 
CC(Cc1csc2ccccc12)(NC(=O)OC1C2CC3CC(C2)CC1C3)C(=O)NCCc1ccccc1 (stereo not drawn) [drawing 47 (H H H H H)] | 760 | 
CC(Cc1n[nH]c2ccccc12)(NC(=O)OC1C2CC3CC(C2)CC1C3)C(=O)NCC(NC(=O)CCC(=O)O)c1ccccc1 (stereo not drawn) [drawing 53 (H H H H NHCOCH2 CH2 COOH)] | 96 | 
CC(Cc1n[nH]c2ccccc12)(NC(=O)OC1C2CC3CC(C2)CC1C3)C(=O)NCC(c1ccccc1)N1C(=O)CCC1=O (stereo not drawn) [drawing 53/drawing 54 (Diast I)] |  | IA
CC(Cc1n[nH]c2ccccc12)(NC(=O)OC1C2CC3CC(C2)CC1C3)C(=O)NCC(c1ccccc1)N1C(=O)CCC1=O (stereo not drawn) [drawing 53/drawing 54 (Diast II)] | 220 | 
Cc1[nH]cc(CC(C)(NC(=O)OC2C3CC4CC(C3)CC2C4)C(=O)NC(CO)C(O)c2ccccc2)c1C (stereo not drawn) [drawing 56 (H H CH2 OH H OH)] | 3000 | 
Cc1[nH]cc(CC(C)(NC(=O)OC2C3CC4CC(C3)CC2C4)C(=O)NCCc2ccccc2)c1C (stereo not drawn) [drawing 56 (H H H H H)] |  | IA
CC(Cc1ncc2ccccn12)(NC(=O)OC1C2CC3CC(C2)CC1C3)C(=O)N[C@@H](CO)[C@@H](O)c1ccccc1 (stereo partly drawn) [drawing 57 (H H CH2 OH H OH)] | 750 | 
CC(Cc1ncc2ccccn12)(NC(=O)OC1C2CC3CC(C2)CC1C3)C(=O)NCCc1ccccc1 (stereo not drawn) [drawing 57 (H H H H H)] | 930 | 
CC(Cc1ccc[n+]([O-])c1)(NC(=O)OC1C2CC3CC(C2)CC1C3)C(=O)NC(CO)Cc1ccccc1 (stereo not drawn) [drawing 60 (Diast I)] |  | IA
CC(Cc1ccncc1)(NC(=O)OC1C2CC3CC(C2)CC1C3)C(=O)NC(CO)Cc1ccccc1 (stereo not drawn) [drawing 61 (Diast I)] | 370 | 
CC(Cc1ccncc1)(NC(=O)OC1C2CC3CC(C2)CC1C3)C(=O)NC(CO)Cc1ccccc1 (stereo not drawn) [drawing 61 (Diast II)] |  | IA
CN1c2ccccc2C(c2ccccc2)=NCC1CC(C)(NC(=O)OC1C2CC3CC(C2)CC1C3)C(=O)NCCc1ccccc1 (stereo not drawn) [drawing 64 (Diast I)] | 760 | 
